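Each compound was tested at five concentrations against cells in 96-well plates for 48 hours. GI50 is the concentration that inhibits growth by half.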 Active and inactive are the calls of the source. Rule as the data show it: active = GI50 up to about 1.1 µM and inactive = higher.
Legend:
Experiment in all cases: DTP human tumour cell line panel, 48 h
MDA-N = system: MDA-N
ACHN = system: ACHN
SK-MEL-2 = system: SK-MEL-2
TK-10 = system: TK-10
UO-31 = system: UO-31
RPMI-8226 = system: RPMI-8226
COLO 205 = system: COLO 205
LOX IMVI = system: LOX IMVI
U-251 = system: U-251
SK-MEL-28 = system: SK-MEL-28
MCF7 = system: MCF7
SF-295 = system: SF-295
NCI-H23 = system: NCI-H23
A498 = system: A498
DU-145 = system: DU-145
MDA-MB-231 = system: MDA-MB-231
SN12C = system: SN12C
BT-549 = system: BT-549
HOP-62 = system: HOP-62
Hs-578T = system: Hs-578T
HL-60 = system: HL-60
IGROV-1 = system: IGROV-1
SNB-75 = system: SNB-75
NCI-H460 = system: NCI-H460
UACC-257 = system: UACC-257
HT-29 = system: HT-29
OVCAR-3 = system: OVCAR-3
SK-OV-3 = system: SK-OV-3
SF-539 = system: SF-539
A549 = system: A549
T47D = system: T47D
OVCAR-8 = system: OVCAR-8
KM12 = system: KM12
HCT-116 = system: HCT-116
PC-3 = system: PC-3
NCI/ADR-RES = system: NCI/ADR-RES
MDA-MB-435 = system: MDA-MB-435
SF-268 = system: SF-268
HCT-15 = system: HCT-15
SR = system: SR
NCI-H522 = system: NCI-H522
CAKI-1 = system: CAKI-1
EKVX = system: EKVX
NCI-H226 = system: NCI-H226
UACC-62 = system: UACC-62
SK-MEL-5 = system: SK-MEL-5
Malme-3M = system: Malme-3M
HCC 2998 = system: HCC 2998
SW-620 = system: SW-620
MOLT-4 = system: MOLT-4
K562 = system: K562
CCRF-CEM = system: CCRF-CEM
SNB-19 = system: SNB-19
786-0 = system: 786-0
OVCAR-5 = system: OVCAR-5
M14 = system: M14
OVCAR-4 = system: OVCAR-4
HOP-92 = system: HOP-92
RXF 393 = system: RXF 393

Measured: GI50

O=C(O)[C@@H]1CCC(=O)N1C(c1ccc2c(c1)OCO2)c1ccc2c(c1)OCO2
inactive: MDA-N > 100 µM | ACHN > 100 µM | SK-MEL-2 > 100 µM | TK-10 > 100 µM | UO-31 > 100 µM | RPMI-8226 > 100 µM | COLO 205 > 100 µM | LOX IMVI > 100 µM | U-251 > 100 µM | SK-MEL-28 > 100 µM | MCF7 > 100 µM | SF-295 > 100 µM | NCI-H23 > 100 µM | A498 > 100 µM | DU-145 > 100 µM | MDA-MB-231 > 100 µM | SN12C > 100 µM | BT-549 > 100 µM | HOP-62 > 100 µM | Hs-578T > 100 µM | HL-60 > 100 µM | IGROV-1 > 100 µM | SNB-75 > 100 µM | NCI-H460 > 100 µM | UACC-257 > 100 µM | HT-29 > 100 µM | OVCAR-3 > 100 µM | SK-OV-3 > 10 µM | SF-539 > 100 µM | A549 > 100 µM | T47D > 100 µM | OVCAR-8 > 100 µM | KM12 > 100 µM | HCT-116 > 100 µM | PC-3 > 100 µM | NCI/ADR-RES > 100 µM | MDA-MB-435 > 100 µM | SF-268 > 100 µM | SR > 100 µM | NCI-H522 > 100 µM | CAKI-1 > 100 µM | EKVX > 100 µM | NCI-H226 > 100 µM | UACC-62 > 100 µM | SK-MEL-5 > 100 µM | Malme-3M > 100 µM | HCC 2998 > 100 µM | SW-620 > 100 µM | MOLT-4 > 100 µM | K562 > 100 µM | CCRF-CEM > 10 µM | SNB-19 > 100 µM | 786-0 > 100 µM | OVCAR-5 > 100 µM | M14 > 100 µM | OVCAR-4 35.2 µM | HOP-92 > 100 µM
> 100 µM: HCT-15

c1ccc2c(c1)nc1n2CSCC1
inactive: MDA-N > 100 µM | ACHN > 100 µM | SK-MEL-2 > 100 µM | TK-10 > 100 µM | UO-31 > 100 µM | RPMI-8226 > 100 µM | COLO 205 > 100 µM | LOX IMVI > 100 µM | U-251 > 100 µM | SK-MEL-28 > 100 µM | MCF7 > 100 µM | SF-295 > 100 µM | NCI-H23 > 100 µM | A498 > 100 µM | DU-145 > 100 µM | MDA-MB-231 > 100 µM | SN12C > 100 µM | BT-549 > 100 µM | HOP-62 > 100 µM | Hs-578T > 100 µM | HL-60 > 100 µM | IGROV-1 > 100 µM | SNB-75 > 100 µM | NCI-H460 > 100 µM | UACC-257 > 100 µM | HT-29 > 100 µM | OVCAR-3 > 100 µM | SK-OV-3 > 100 µM | SF-539 > 100 µM | A549 > 100 µM | T47D > 100 µM | OVCAR-8 > 100 µM | KM12 > 100 µM | HCT-116 > 100 µM | PC-3 > 100 µM | NCI/ADR-RES > 100 µM | MDA-MB-435 > 100 µM | SF-268 > 100 µM | SR > 100 µM | RXF 393 > 100 µM | CAKI-1 > 100 µM | EKVX > 100 µM | NCI-H226 > 100 µM | UACC-62 > 100 µM | SK-MEL-5 > 100 µM | HCC 2998 > 100 µM | SW-620 > 100 µM | MOLT-4 > 100 µM | K562 > 100 µM | CCRF-CEM > 100 µM | SNB-19 > 100 µM | 786-0 > 100 µM | OVCAR-5 > 100 µM | M14 > 100 µM | OVCAR-4 > 100 µM | HOP-92 > 100 µM
> 100 µM: HCT-15

O=C(CSc1nc2ccccc2s1)c1sc2sc3ccccc3[n+]2c1[O-]
> 100 µM: HCT-15
inactive: MDA-N > 100 µM | ACHN > 100 µM | SK-MEL-2 > 100 µM | TK-10 > 100 µM | UO-31 > 100 µM | RPMI-8226 > 100 µM | COLO 205 > 100 µM | LOX IMVI > 100 µM | U-251 > 100 µM | SK-MEL-28 > 100 µM | MCF7 > 100 µM | SF-295 > 100 µM | NCI-H23 > 100 µM | A498 > 100 µM | DU-145 > 100 µM | MDA-MB-231 26.9 µM | SN12C > 100 µM | BT-549 > 100 µM | HOP-62 > 100 µM | Hs-578T > 100 µM | HL-60 > 100 µM | IGROV-1 > 100 µM | NCI-H460 > 100 µM | UACC-257 > 100 µM | HT-29 > 100 µM | OVCAR-3 > 100 µM | SK-OV-3 > 100 µM | SF-539 > 100 µM | A549 > 100 µM | T47D > 100 µM | OVCAR-8 > 100 µM | KM12 > 100 µM | HCT-116 > 100 µM | PC-3 > 100 µM | NCI/ADR-RES > 100 µM | MDA-MB-435 > 100 µM | SF-268 > 100 µM | SR > 100 µM | NCI-H522 > 100 µM | RXF 393 > 100 µM | CAKI-1 > 100 µM | EKVX > 100 µM | NCI-H226 > 100 µM | UACC-62 > 100 µM | SK-MEL-5 > 100 µM | Malme-3M > 100 µM | SW-620 > 100 µM | MOLT-4 > 100 µM | K562 > 100 µM | SNB-19 > 100 µM | 786-0 > 100 µM | OVCAR-5 > 100 µM | M14 > 100 µM | OVCAR-4 > 100 µM | HOP-92 > 100 µM

COC(=O)/C=C\C(C#N)(C#N)/N=C/c1ccsc1
inactive: MDA-N 3.83 µM | ACHN 1.42 µM | SK-MEL-2 16.9 µM | TK-10 2.36 µM | UO-31 3.03 µM | RPMI-8226 1.25 µM | COLO 205 1.37 µM | LOX IMVI 2.24 µM | U-251 15.8 µM | SK-MEL-28 2.83 µM | MCF7 1.88 µM | SF-295 13.3 µM | NCI-H23 7.45 µM | A498 18.8 µM | DU-145 8.05 µM | MDA-MB-231 5.73 µM | SN12C 5.33 µM | BT-549 1.84 µM | HOP-62 16.9 µM | Hs-578T 10.6 µM | IGROV-1 9.08 µM | SNB-75 15.7 µM | NCI-H460 17.3 µM | UACC-257 4.45 µM | HT-29 4.18 µM | OVCAR-3 1.86 µM | SK-OV-3 17.2 µM | A549 17.7 µM | T47D 1.86 µM | OVCAR-8 4.19 µM | KM12 14.5 µM | HCT-116 1.75 µM | PC-3 11.6 µM | NCI/ADR-RES 2.54 µM | MDA-MB-435 5.4 µM | SF-268 15.2 µM | RXF 393 1.78 µM | CAKI-1 2.26 µM | EKVX 4.46 µM | NCI-H226 20.4 µM | UACC-62 4.8 µM | SK-MEL-5 4.66 µM | Malme-3M 1.51 µM | HCC 2998 16.1 µM | SW-620 1.28 µM | MOLT-4 1.16 µM | SNB-19 14.5 µM | 786-0 1.37 µM | OVCAR-5 7.24 µM | M14 2.45 µM | OVCAR-4 18.5 µM | HOP-92 1.74 µM
1.55 µM: HCT-15
active: HL-60 0.429 µM | SR 0.214 µM | NCI-H522 0.662 µM | K562 0.525 µM | CCRF-CEM 0.216 µM

Clc1ccc(CCN2CCN(CCCc3ccccc3)CC2)cc1Cl
inactive: MDA-N 16.9 µM | ACHN 19.6 µM | SK-MEL-2 18.8 µM | TK-10 16.2 µM | UO-31 12.2 µM | RPMI-8226 20.9 µM | COLO 205 15.4 µM | LOX IMVI 17.2 µM | U-251 17.4 µM | SK-MEL-28 18.7 µM | MCF7 17.5 µM | SF-295 16.4 µM | NCI-H23 16.9 µM | A498 15.8 µM | DU-145 16.4 µM | MDA-MB-231 16.8 µM | SN12C 16 µM | BT-549 15.8 µM | HOP-62 18.5 µM | Hs-578T 23.5 µM | HL-60 15.7 µM | IGROV-1 17 µM | NCI-H460 17.7 µM | UACC-257 17.1 µM | HT-29 13.2 µM | OVCAR-3 16.4 µM | SK-OV-3 19.3 µM | SF-539 17.8 µM | A549 15.9 µM | T47D 17.2 µM | OVCAR-8 16.3 µM | KM12 17.7 µM | HCT-116 15.1 µM | PC-3 17.7 µM | NCI/ADR-RES 14.7 µM | MDA-MB-435 17.3 µM | SF-268 20.4 µM | SR 26.7 µM | NCI-H522 20.6 µM | CAKI-1 17.1 µM | EKVX 17.4 µM | NCI-H226 20.1 µM | UACC-62 16.8 µM | SK-MEL-5 15.8 µM | Malme-3M 19.1 µM | HCC 2998 17 µM | SW-620 20 µM | MOLT-4 29.6 µM | K562 26.6 µM | CCRF-CEM 33.3 µM | SNB-19 16.6 µM | 786-0 16.6 µM | OVCAR-5 16.2 µM | M14 14.4 µM | OVCAR-4 16.3 µM | HOP-92 11.3 µM
13.5 µM: HCT-15
